Results taken from PubChem BioAssay AID248 (DTP/NCI, 2004).
Values joined by “and” are separate entries in the source; they are usually repeats but may differ in a detail not shown here. Equal values may be shown once. Inconclusive results and toxic doses are left out. Cut-off read from the data, not from the text of the source: active = T/C of 150% or more; inactive = T/C below 125%.

Tested on: L1210 leukemia ip in BDF1 mice, survival T/C
Experiment: NCI In Vivo Anticancer Drug Screen. Data for tumor model L1210 Leukemia (intraperitoneal) in B6D2F1 (BDF1) mice
Conditions: endpoint: mean survival time, higher = longer survival
Method in brief: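 Tumor cells were implanted, animals were treated, and survival was followed. The result divides the treated measurement by the vehicle-control measurement.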

Measured: T/C

Nc1n[nH]c(N)n1
inactive: dose: 12.5 mg/kg/injection, schedule: Q#A X020 (ip), vehicle: saline 105 % of control | dose: 25.0 mg/kg/injection, schedule: Q01DX010 (ip), vehicle: saline 103 % of control | dose: 25.0 mg/kg/injection, schedule: Q#A X020 (ip), vehicle: saline 109 % of control | dose: 28.0 mg/kg/injection, schedule: Q03HX040 (ip), vehicle: water 105 % of control | dose: 32.0 mg/kg/injection, schedule: Q01DX015 (ip), vehicle: saline 94 % of control | dose: 48.0 mg/kg/injection, schedule: Q## X008 (ip), vehicle: saline 101 % of control | dose: 50.0 mg/kg/injection, schedule: Q01DX010 (ip), vehicle: saline 110 % of control | dose: 50.0 mg/kg/injection, schedule: Q06HX068 (ip), vehicle: water 106 % of control | dose: 56.0 mg/kg/injection, schedule: Q03HX008 (ip), vehicle: water 103 % of control | dose: 56.0 mg/kg/injection, schedule: Q03HX024 (ip), vehicle: water 111 % of control | dose: 63.0 mg/kg/injection, schedule: Q01DX015 (ip), vehicle: saline 102 % of control | dose: 96.0 mg/kg/injection, schedule: Q## X008 (ip), vehicle: saline 102 % of control | dose: 100.0 mg/kg/injection, schedule: Q01DX009 (ip), vehicle: saline 108 % of control | dose: 100.0 mg/kg/injection, schedule: Q01DX009 (sc), vehicle: saline 102 % of control | dose: 100.0 mg/kg/injection, schedule: Q06HX068 (ip), vehicle: water 110 % of control | dose: 100.0 mg/kg/injection, schedule: Q#A X034 (ip), vehicle: water 107 % of control | dose: 111.0 mg/kg/injection, schedule: Q01DX Z (ip), vehicle: methylcellulose (MC) 100 % of control | dose: 112.0 mg/kg/injection, schedule: Q12HX018 (ip), vehicle: water 111 % of control | dose: 125.0 mg/kg/injection, schedule: Q01DX015 (ip), vehicle: saline 110 % of control | dose: 125.0 mg/kg/injection, schedule: Q03HX008 (oral), vehicle: water 107 % of control | dose: 125.0 mg/kg/injection, schedule: Q03HX024 (oral), vehicle: water 105 % of control | dose: 192.0 mg/kg/injection, schedule: Q## X008 (ip), vehicle: saline 104 % of control | dose: 200.0 mg/kg/injection, schedule: Q01DX001 (ip), vehicle: saline 104 % of control and 107 % of control | dose: 200.0 mg/kg/injection, schedule: Q01DX001 (sc), vehicle: saline 104 % of control | dose: 200.0 mg/kg/injection, schedule: Q01DX006 (iv), vehicle: saline 105 % of control | dose: 200.0 mg/kg/injection, schedule: Q01DX009 (sc), vehicle: saline 108 % of control | dose: 200.0 mg/kg/injection, schedule: Q01DX010 (ip), vehicle: saline 98 % of control | dose: 200.0 mg/kg/injection, schedule: Q01DX017 (ip), vehicle: water 111 % of control | dose: 200.0 mg/kg/injection, schedule: Q## X003 (ip), vehicle: saline 110 % of control | dose: 200.0 mg/kg/injection, schedule: Q## X040 (ip), vehicle: saline 104 % of control | dose: 225.0 mg/kg/injection, schedule: Q12HX010 (ip), vehicle: water 107 % of control | dose: 250.0 mg/kg/injection, schedule: Q03HX008 (oral), vehicle: water 107 % of control | dose: 250.0 mg/kg/injection, schedule: Q03HX024 (oral), vehicle: water 102 % of control | dose: 256.0 mg/kg/injection, schedule: Q## X088 (ip), vehicle: other 98 % of control | dose: 384.0 mg/kg/injection, schedule: Q## X008 (ip), vehicle: saline 103 % of control | dose: 395.0 mg/kg/injection, schedule: Q01DX001 (ip), vehicle: saline 101 % of control and 110 % of control | dose: 400.0 mg/kg/injection, schedule: Q01DX001 (ip), vehicle: saline 106 % of control | dose: 400.0 mg/kg/injection, schedule: Q01DX001 (oral), vehicle: water 102 % of control | dose: 400.0 mg/kg/injection, schedule: Q01DX001 (sc), vehicle: saline 102 % of control | dose: 400.0 mg/kg/injection, schedule: Q01DX009 (sc), vehicle: saline 108 % of control | dose: 400.0 mg/kg/injection, schedule: Q01DX010 (ip), vehicle: saline 104 % of control | dose: 400.0 mg/kg/injection, schedule: Q## X003 (ip), vehicle: saline 106 % of control | dose: 400.0 mg/kg/injection, schedule: Q## X024 (ip), vehicle: saline 100 % of control | dose: 400.0 mg/kg/injection, schedule: Q## X040 (ip), vehicle: saline 108 % of control | dose: 450.0 mg/kg/injection, schedule: Q01DX001 (ip), vehicle: water 103 % of control | dose: 500.0 mg/kg/injection, schedule: Q01DX001 (ip), vehicle: water 97 % of control and 102 % of control | dose: 500.0 mg/kg/injection, schedule: Q01DX001 (oral), vehicle: water 104 % of control | dose: 500.0 mg/kg/injection, schedule: Q01DX005 (oral), vehicle: water 101 % of control | dose: 500.0 mg/kg/injection, schedule: Q01DX Z (ip), vehicle: methylcellulose (MC) 110 % of control | dose: 500.0 mg/kg/injection, schedule: Q03HX008 (oral), vehicle: water 108 % of control | dose: 500.0 mg/kg/injection, schedule: Q04DX003 (oral), vehicle: water 105 % of control | dose: 500.0 mg/kg/injection, schedule: Q## X006 (oral), vehicle: water 102 % of control | dose: 592.0 mg/kg/injection, schedule: Q01DX001 (ip), vehicle: saline 105 % of control and 108 % of control | dose: 675.0 mg/kg/injection, schedule: Q06HX016 (ip), vehicle: saline 100 % of control | dose: 768.0 mg/kg/injection, schedule: Q## X008 (ip), vehicle: saline 111 % of control | dose: 800.0 mg/kg/injection, schedule: Q01DX001 (ip), vehicle: saline 102 % of control and 105 % of control and 106 % of control | dose: 800.0 mg/kg/injection, schedule: Q01DX001 (oral), vehicle: water 105 % of control | dose: 800.0 mg/kg/injection, schedule: Q01DX001 (sc), vehicle: saline 110 % of control | dose: 800.0 mg/kg/injection, schedule: Q## X003 (ip), vehicle: saline 108 % of control | dose: 800.0 mg/kg/injection, schedule: Q## X024 (ip), vehicle: saline 106 % of control | dose: 806.0 mg/kg/injection, schedule: Q01DX001 (ip), vehicle: saline 104 % of control | dose: 806.0 mg/kg/injection, schedule: Q08DX002 (ip), vehicle: saline 101 % of control | dose: 888.0 mg/kg/injection, schedule: Q01DX001 (ip), vehicle: saline 106 % of control and 111 % of control | dose: 900.0 mg/kg/injection, schedule: Q01DX001 (ip), vehicle: water 104 % of control | dose: 900.0 mg/kg/injection, schedule: Q03HX024 (ip), vehicle: saline 95 % of control | dose: 900.0 mg/kg/injection, schedule: Q#A X018 (ip), vehicle: water 94 % of control | dose: 1000.0 mg/kg/injection, schedule: Q01DX001 (ip), vehicle: water 101 % of control and 103 % of control | dose: 1000.0 mg/kg/injection, schedule: Q01DX001 (oral), vehicle: water 98 % of control | dose: 1000.0 mg/kg/injection, schedule: Q04DX003 (oral), vehicle: water 107 % of control | dose: 1200.0 mg/kg/injection, schedule: Q01DX001 (ip), vehicle: saline 105 % of control | dose: 1203.0 mg/kg/injection, schedule: Q01DX001 (ip), vehicle: saline 107 % of control | dose: 1203.0 mg/kg/injection, schedule: Q04DX003 (ip), vehicle: saline 110 % of control | dose: 1203.0 mg/kg/injection, schedule: Q08DX002 (ip), vehicle: saline 102 % of control | dose: 1333.0 mg/kg/injection, schedule: Q01DX001 (ip), vehicle: saline 106 % of control and 110 % of control | dose: 1600.0 mg/kg/injection, schedule: Q01DX001 (ip), vehicle: saline 107 % of control and 110 % of control | dose: 1600.0 mg/kg/injection, schedule: Q01DX001 (oral), vehicle: water 108 % of control | dose: 1600.0 mg/kg/injection, schedule: Q01DX001 (sc), vehicle: saline 107 % of control | dose: 1600.0 mg/kg/injection, schedule: Q01DX Z (oral), vehicle: saline 109 % of control | dose: 1796.0 mg/kg/injection, schedule: Q01DX001 (ip), vehicle: saline 109 % of control | dose: 1796.0 mg/kg/injection, schedule: Q08DX002 (ip), vehicle: saline 107 % of control | dose: 1800.0 mg/kg/injection, schedule: Q01DX001 (ip), vehicle: water 103 % of control | dose: 2000.0 mg/kg/injection, schedule: Q01DX001 (ip), vehicle: saline 110 % of control | dose: 2000.0 mg/kg/injection, schedule: Q01DX001 (ip), vehicle: water 101 % of control and 103 % of control | dose: 2000.0 mg/kg/injection, schedule: Q01DX001 (oral), vehicle: water 96 % of control | dose: 2000.0 mg/kg/injection, schedule: Q01DX Z (ip), vehicle: saline 96 % of control | dose: 2000.0 mg/kg/injection, schedule: Q01DX Z (ip), vehicle: water 94 % of control | dose: 2680.0 mg/kg/injection, schedule: Q08DX002 (ip), vehicle: saline 110 % of control | dose: 4000.0 mg/kg/injection, schedule: Q01DX001 (ip), vehicle: water 108 % of control | dose: 4000.0 mg/kg/injection, schedule: Q## X006 (oral), vehicle: water 107 % of control
